For one compound, t1/2 results are on record in PMC13304593 (Pharmaceuticals, 2026).

The nature of the series: Pharmacokinetics of DTX in mice after oral administration. It counts as in vivo, Kunming mice. The following applies: lung, oral 20 mg/kg DTX or equivalent.

Method: Briefly, the samples were precipitated with three volumes of acetonitrile and analyzed using an LC-MS/MS system comprising a Waters ACQUITY ultra-high-performance liquid chromatography (UPLC) system (Waters Corporation, Milford, MA, USA) and an API 5500 mass spectrometer (AB Sciex LLC, Framingham, MA, USA) equipped with an electrospray ionization source. Separation was performed on an ACQUITY BEH C18 column (2.1 × 100 mm, 1.7 μm; Waters) using a gradient elution.
One hundred specific-pathogen-free (SPF) male Kunming mice (body weight: 22–24 g) were purchased from the Beijing Vital River Laboratory Animal Technology Co., Ltd. (Beijing, China). Mice were housed in an air-conditioned room maintained at 22–24 °C with a 12 h light/12 h dark cycle. Prior to the experiment, mice were fasted for 12 h with free access to water.
Mice were randomly divided by body weight into two main groups, each subdivided into 10 subgroups. […] At each time point post-administration (0.083, 0.25, 0.5, 1, 2, 3, 4, 6, 8, and 12 h), one subgroup of mice from each main group was anesthetized with Zoletil® 50. Systemic blood was collected and heparinized to prepare the plasma. Next, the animals were immediately euthanized by cervical dislocation under deep anesthesia prior to liver and lung excision. […]
Quantitative data are expressed as the mean ± SD.

For the compound `CC(=O)O[C@@]12CO[C@@H]1C[C@H](O)[C@@]1(C)C(=O)[C@H](O)C3=C(C)[C@@H](OC(=O)[C@H](O)[C@@H](NC(=O)OC(C)(C)C)c4ccccc4)C[C@@](O)([C@@H](OC(=O)c4ccccc4)[C@H]21)C3(C)C` [DTX, docetaxel], the t1/2 was 2.6 h.
